According to patent US10307413B2, “Tetrahydro- and dihydro-isoquinoline PRMT5 inhibitors and uses thereof” (Epizyme, Inc., priority 2013, dated 2019):
Like-named read-outs stand apart in the source and are kept apart here.

Experiments:
[1] = test system: Z-138 cell line; test: Z-138 Proliferation Assay (Cell Titer Glo, 5 days); format: cell-based; settings: Homo sapiens, read-out: Proliferation EC50
Procedure, shortened: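 Viability via CellTiter-Glo luminescence (ATP) after 5-day incubation at 37 °C, 5% CO2. Compounds tested in triplicate, nine 3-fold steps, highest final concentration 20 μM in 0.2% DMSO; 50% inhibitory concentration by 4-parameter fit of normalized curves.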

[2] = test system: symmetric di-methyl arginine in Z-138 cells; test: Z-138 Methylation Assay (In Cell Western for symmetric di-methyl arginine and DNA content); format: cell-based; settings: Homo sapiens, read-out: ICW EC50
Procedure, shortened: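 In-cell western: symmetric di-methyl arginine signal ratioed to DRAQ5 DNA content after 96 h compound exposure of Z-138 cells seeded at 50,000 cells/mL.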

[3] = molecular target: PRMT5/MEP50 (Homo sapiens (Human), UniProt O14744); test: PRMT5 Biochemical Assay (PRMT5/MEP50 enzyme assay on peptide substrate, 3H-SAM Flashplate)
Source text: S-adenosylmethionine (SAM), S-adenosylhomocysteine (SAH), bicine, KCl, Tween20, dimethylsulfoxide (DMSO), bovine skin gelatin (BSG), and Tris(2-carboxyethyl)phosphine hydrochloride solution (TCEP) were purchased from Sigma-Aldrich at the highest level of purity possible. ^3H-SAM was purchase from American Radiolabeled Chemicals with a specific activity of 80 Ci/mmol. 384-well streptavidin Flashplates were purchased from PerkinElmer.
Peptide representative of human histone H4 residues 1-15 was synthesized with a C-terminal linker-affinity tag motif and a C-terminal amide cap by 21st Century Biochemicals.
The amplified genes were sublconed into pENTR/D/TEV (Life Technologies) and subsequently transferred by Gateway™ attL×attR recombination to pDEST8 baculovirus expression vector (Life Technologies).
Protein over-expression was accomplished by infecting exponentially growing Spodoptera frugiperda (SF9) cell culture at 1.2×10^6 cell/ml with a 5000 fold dilution of BIIC stock. Infections were carried out at 27° C. for 72 hours, harvested by centrifugation, and stored at −80° C. for purification.
Flag-PRMT5/6His-MeP50 was eluted with 300 mM Imidazole in the same buffer.
General Procedure for PRMT5/MEP50 Enzyme Assays on Peptide Substrates.
The assays were all performed in a buffer consisting of 20 mM Bicine (pH=7.6), 1 mM TCEP, 0.005% BSG, and 0.002% Tween20, prepared on the day of use. […] DMSO (1 ul) was added to Columns 11, 12, 23, 24, rows A-H for the maximum signal control and 1 ul of SAH, a known product and inhibitor of PRMT5/MEP50, was added to columns 11, 12, 23, 24, rows I-P for the minimum signal control. A cocktail (40 ul) containing the PRMT5/MEP50 enzyme and the peptide was added by Multidrop Combi (Thermo-Fisher). The compounds were allowed to incubate with PRMT5/MEP50 for 30 min at 25 degrees Celsius, then a cocktail (10 ul) containing ^3H-SAM was added to initiate the reaction (final volume=51 ul). […] The assays were stopped by the addition of non-radioactive SAM (10 ul) to a final concentration of 600 uM, which dilutes the ^3H-SAM to a level where its incorporation into the peptide substrate is no longer detectable. 50 ul of the reaction in the 384-well polypropylene plate was then transferred to a 384-well Flashplate and the biotinylated peptides were allowed to bind to the streptavidin surface for at least 1 hour before being washed three times with 0.1% Tween20 in a Biotek ELx405 plate washer. The plates were then read in a PerkinElmer TopCount plate reader to measure the quantity of ^3H-labeled peptide bound to the Flashplate surface, measured as disintegrations per minute (dpm) or alternatively, referred to as counts per minute (cpm).
[formula] [formula] Where dpm=disintegrations per minute, cmpd=signal in assay well, and min and max are the respective minimum and maximum signal controls.
[formula] [formula] Where top and bottom are the normally allowed to float, but may be fixed at 100 or 0 respectively in a 3-parameter fit. The Hill Coefficient normally allowed to float but may also be fixed at 1 in a 3-parameter fit. Y is the % inhibition and X is the compound concentration.

[4] = 120 h, Z-138 cells, 5 days, Cell Titer Glo

Sequence of PRMT5/MEP50 (O14744 other isoform, or with tags, fused parts or gaps): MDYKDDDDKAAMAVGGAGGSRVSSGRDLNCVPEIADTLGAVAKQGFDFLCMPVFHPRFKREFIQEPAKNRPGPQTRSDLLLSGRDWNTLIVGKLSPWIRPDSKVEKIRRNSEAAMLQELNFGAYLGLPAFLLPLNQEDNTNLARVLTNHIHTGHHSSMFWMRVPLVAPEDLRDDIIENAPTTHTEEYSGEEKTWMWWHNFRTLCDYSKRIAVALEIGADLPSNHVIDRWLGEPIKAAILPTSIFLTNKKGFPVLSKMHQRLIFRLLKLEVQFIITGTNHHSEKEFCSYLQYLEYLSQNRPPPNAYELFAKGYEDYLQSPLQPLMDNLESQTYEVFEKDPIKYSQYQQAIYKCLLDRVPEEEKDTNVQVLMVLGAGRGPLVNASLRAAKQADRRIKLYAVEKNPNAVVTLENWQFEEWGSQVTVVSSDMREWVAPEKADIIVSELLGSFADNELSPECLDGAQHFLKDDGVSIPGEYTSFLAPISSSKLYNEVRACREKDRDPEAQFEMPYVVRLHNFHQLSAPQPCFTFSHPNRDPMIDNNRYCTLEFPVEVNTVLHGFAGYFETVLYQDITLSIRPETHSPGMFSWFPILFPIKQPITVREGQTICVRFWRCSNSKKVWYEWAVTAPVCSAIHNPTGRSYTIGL
Sequence of PRMT5/MEP50 (Q9BQA1 other isoform, or with tags, fused parts or gaps partner): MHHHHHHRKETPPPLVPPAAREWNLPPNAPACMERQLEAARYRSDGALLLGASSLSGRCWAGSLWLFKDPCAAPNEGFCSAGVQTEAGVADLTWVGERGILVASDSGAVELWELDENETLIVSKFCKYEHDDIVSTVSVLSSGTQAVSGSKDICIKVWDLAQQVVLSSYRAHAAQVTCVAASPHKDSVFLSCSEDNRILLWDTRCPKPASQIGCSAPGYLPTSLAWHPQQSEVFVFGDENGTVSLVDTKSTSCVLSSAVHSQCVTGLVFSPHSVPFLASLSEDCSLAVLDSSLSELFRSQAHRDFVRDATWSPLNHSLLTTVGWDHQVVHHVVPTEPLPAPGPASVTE

Row | Compound | EC50 ([2]; In Cell Western methylation) [nM] | IC50 ([3]; PRMT5 biochemical assay) [nM] | EC50 [2] [nM] | IC50 [3] [nM] | EC50 ([1]; Z-138, 120 h) [nM] | EC50 [1, 4] [nM] | EC50 ([1]; 120 h, Z-138 cells, 5 days) [nM]
1 | CCSCCN1CC(Nc2cc(C(=O)NC[C@H](O)CN3CCc4ccccc4C3)ncn2)C1 [Compound 581] | 101 to 1000 | < 100 |  |  | > 5000 |  | 
2 | Cc1cccc2c1CCN(C[C@@H](O)CNC(=O)c1cc(NC3COC3)ncn1)C2 [Compound 683] | 101 to 1000 | 101 to 1000 |  |  |  | > 5000 | 
3 | COCCNc1cc(C(=O)NC[C@H](O)CN2CCc3ccccc3C2)ncn1 [Compound 352] |  |  | < 100 | 101 to 1000 |  |  | 1000 to 10000
4 | O=C(NC[C@H](O)CN1CCc2ccccc2C1)c1cc(NC2CCC2)ncn1 [Compound 355] |  |  | < 100 | < 100 |  |  | < 100
5 | CC(=O)N1CC(Nc2cc(C(=O)NCC(F)CN3CCc4ccccc4C3)ncn2)C1 (stereo not drawn) [Compound 655] | 101 to 1000 | 101 to 1000 |  |  |  | > 5000 | 
6 | O=C(NCC(O)CN1CCc2ccccc2C1)c1ccccn1 (stereo not drawn) [Compound 17, N-(3-(3,4-dihydroisoquinolin-2(1H)-yl)-2-hydroxypropyl)picolinamide] |  |  | 101 to 1000 | 101 to 1000 |  |  | > 20000
7 | COC(CNC(=O)c1cc(NC2CCN(C(C)=O)CC2)ncn1)CN1CCc2ccccc2C1 (stereo not drawn) [Compound 542] | 101 to 1000 | 101 to 1000 |  |  |  | > 5000 | 
8 | Nc1cc(C(=O)NC[C@H](O)CN2CCc3ccccc3C2)ncn1 [Compound 429] | 101 to 1000 | 101 to 1000 |  |  |  | 10000 to 50000 | 
9 | COC(CNC(=O)c1cc(NC2CCNCC2)ncn1)CN1CCc2ccccc2C1 (stereo not drawn) [Compound 538] | > 1000 | 1000 to 10000 |  |  |  | > 5000 | 
10 | CC(=O)N1CC(Nc2cc(C(=O)NC[C@H](O)CN3CCc4ccccc4C3(C)C)ncn2)C1 [Compound 605] | 101 to 1000 | 101 to 1000 |  |  |  | > 5000 | 
11 | COC(CNC(=O)c1cc(NC2COC2)ncn1)CN1CCc2ccccc2C1 (stereo not drawn) [Compound 523] | > 1000 | 1000 to 10000 |  |  |  | > 5000 | 
12 | O=C(NC[C@H](O)CN1CCc2ccccc2C1)c1ccnc(NC2COC2)c1 [Compound 378] |  |  | > 1000 | < 100 |  |  | > 20000
13 | CC(NC(=O)c1cc(NC2CCNCC2)ncn1)C(O)CN1CCc2ccccc2C1 (stereo not drawn) [Compound 534] | > 1000 | 101 to 1000 |  |  |  | > 5000 | 
14 | CCCN(C)c1nc(NC2COC2)cc(C(=O)NC[C@H](O)CN2CCc3ccccc3C2)n1 [Compound 459] | < 100 | < 100 |  |  |  | < 100 | 
15 | Cc1cc(C(=O)NC[C@H](O)CN2CCc3ccccc3C2)cc(NC2CCC2)n1 [Compound 348] |  |  | < 100 | < 100 |  |  | 101 to 1000
16 | O=C(NC[C@H](O)CN1CCc2ccccc2C1)c1cc(NC2COC2)nc(N2CCCC2)n1 [Compound 451] | < 100 | < 100 |  |  |  | 101 to 1000 | 
17 | O=C(NC[C@H](O)CN1CCc2ccccc2C1)c1cc(N[C@H]2C[C@H](N3CCOCC3)C2)ncn1 [Compound 558] | < 100 | < 100 |  |  |  | 101 to 1000 | 
18 | COCCN(CCOC)[C@H]1C[C@H](Nc2cc(C(=O)NC[C@H](O)CN3CCc4ccccc4C3)ncn2)C1 [Compound 561] | < 100 | < 100 |  |  |  | 101 to 1000 | 
19 | CN(C)[C@H]1CC[C@H](Nc2cc(C(=O)NC[C@H](O)CN3CCc4ccccc4C3)ncn2)CC1 [Compound 593] | < 100 | < 100 |  |  |  | 101 to 1000 | 
20 | NC(=O)[C@H]1CC[C@@H](Nc2cc(C(=O)NC[C@H](O)CN3CCc4ccccc4C3)ncn2)CC1 [Compound 596] | < 100 | < 100 |  |  |  | 1000 to 10000 | 
21 | CN(C)[C@H]1CC[C@@H](Nc2cc(C(=O)NC[C@H](O)CN3CCc4ccccc4C3)ncn2)CC1 [Compound 589] | 101 to 1000 | < 100 |  |  |  | 1000 to 10000 | 
22 | CC(=O)N1CCC(Nc2cc(C(=O)NCCCN3CCc4ccccc4C3)ccn2)CC1 [Compound 654] | < 100 | < 100 |  |  |  | 1000 to 10000 | 
23 | CC(=O)N1CCC(Nc2cc(C(=O)NCC(C)CN3CCc4ccccc4C3)ncn2)CC1 (stereo not drawn) [Compound 658] | < 100 | < 100 |  |  |  | 101 to 1000 | 
24 | CC(=O)N1CC(Nc2cc(C(=O)NC[C@H](O)CN3CCc4ccccc4C3)nc(N3CCN(C)CC3)n2)C1 [Compound 442] | < 100 | < 100 |  |  |  | 101 to 1000 | 
25 | O=C(NC[C@H](O)CN1CCc2ccccc2C1)c1cc(NC2CCC2)nc(N2CCNCC2)c1 [Compound 393] |  |  | < 100 | < 100 |  |  | < 100
26 | CCN(C)c1nc(NC2COC2)cc(C(=O)NC[C@H](O)CN2CCc3ccccc3C2)n1 [Compound 458] | < 100 | < 100 |  |  |  | < 100 | 
27 | O=C(NCC(O)CN1CCc2ccccc2C1)c1cccnc1 (stereo not drawn) [Compound 18] |  |  | 101 to 1000 | 101 to 1000 |  |  | 10000 to 50000
28 | CN(C[C@H](O)CN1CCc2ccccc2C1)C(=O)c1cc(N(C)C2CCOCC2)ncn1 [Compound 313] |  |  | < 100 | < 100 |  |  | 1000 to 10000

Further lines, with some results ahead:

Row | EC50 ([2]; In Cell Western methylation) [nM] | IC50 ([3]; PRMT5 biochemical assay) [nM] | EC50 [2] [nM] | IC50 [3] [nM] | Compound | EC50 ([1]; Z-138, 120 h) [nM] | EC50 [1, 4] [nM] | EC50 ([1]; 120 h, Z-138 cells, 5 days) [nM]
29 | < 100 | < 100 |  |  | CC(C)C(=O)N1CC(Nc2cc(C(=O)NC[C@H](O)CN3CCc4ccccc4C3)ncn2)C1 [Compound 416] |  | < 100 | 
30 | < 100 | < 100 |  |  | CC(=O)N1CCC(Nc2cc(C(=O)NC[C@H](O)CN3CCc4ccccc4C3)cc(OCCN(C)C)n2)CC1 [Compound 628] |  | < 100 | 
31 | < 100 | < 100 |  |  | O=C(NC[C@H](O)CN1CCc2ccccc2C1)c1cc(NC2COC2)nc(C2CC2)n1 [Compound 480] |  | 101 to 1000 | 
32 | < 100 | < 100 |  |  | O=C(NC[C@H](O)CN1CCc2ccccc2C1)c1cccc(NC2COC2)n1 [Compound 436] |  | 1000 to 10000 | 
33 | < 100 | < 100 |  |  | CC(=O)N1CC(Nc2cc(C(=O)NCC(C)CN3CCc4ccccc4C3)ncn2)C1 (stereo not drawn) [Compound 659] |  | 101 to 1000 | 
34 | < 100 | < 100 |  |  | COCCN(C)c1cc(C(=O)NC[C@H](O)CN2CCc3ccccc3C2)cc(NC2CCN(C(C)=O)CC2)n1 [Compound 614] |  | < 100 | 
35 | < 100 | < 100 |  |  | CC(=O)N1CC(Nc2cncc(C(=O)NC[C@H](O)CN3CCc4ccccc4C3)c2)C1 [Compound 444] |  | 101 to 1000 | 
36 | < 100 | < 100 |  |  | CC(C)C(=O)N1CC(Nc2cc(C(=O)NC[C@H](O)CN3CCc4ccccc4C3)ccn2)C1 [Compound 489] |  | < 100 | 
37 | < 100 | < 100 |  |  | CC(=O)N1CCN(c2nc(NC3CNC3)cc(C(=O)NC[C@H](O)CN3CCc4ccccc4C3)n2)CC1 [Compound 483] |  | 1000 to 10000 | 
38 | < 100 | < 100 |  |  | O=C(NC[C@H](O)CN1CCc2ccccc2C1)c1cc(N[C@H]2CC[C@H](O)CC2)ncn1 [Compound 585] |  | 101 to 1000 | 
39 | < 100 | < 100 |  |  | CO[C@H]1CC[C@H](Nc2cc(C(=O)NC[C@H](O)CN3CCc4ccccc4C3)ncn2)CC1 [Compound 586] |  | < 100 | 
40 | < 100 | < 100 |  |  | CCC(=O)N1CCC(Nc2cc(C(=O)NC[C@H](O)CN3CCc4ccccc4C3)ncn2)CC1 [Compound 406] |  | < 100 | 
41 | < 100 | < 100 |  |  | CC(C)(C)c1nc(NC2COC2)cc(C(=O)NC[C@H](O)CN2CCc3ccccc3C2)n1 [Compound 527] |  | 101 to 1000 | 
